Data set [1] relates to Mus musculus. As to the kind of experiment: Hypoglycemic activity in high fat diet-induced obese BALB/c mouse model assessed as blood glucose level at 0.38 mmol/kg/day administered through diet for 28 days relative to time-matched control. In kind it is functional.
Data set [2] deals with Mus musculus. As to the kind of experiment: Toxicity in lean normal BALB/c mouse assessed as overt signs of behavioural changes at equimolar dose of 0.5 mmol/kg galegine administered daily through diet for 7 days. To be noted: in vivo, po, 168 h. In kind it is organism-based.
Data set [3] relates to Mus musculus. Description: Antiobesity activity in high fat diet-induced obese BALB/c mouse model assessed as change in average daily body weight at 0.38 mmol/kg/day administered through diet for 28 days relative to time-matched control. It counts as functional.
Data set [4] concerns Mus musculus. Description: Hypoglycemic activity in ob/ob mouse model assessed as blood glucose level at 0.26 mmol/kg/day administered through diet for 28 days relative to time-matched control. It counts as functional.
In data set [5] the test system is Mus musculus. As to the kind of experiment: Hypoglycemic activity in lean normal BALB/c mouse assessed as blood glucose level at 0.5 mmol/kg/day administered through diet for 7 days relative to time-matched control. In kind it is functional.
Data set [6] relates to Mus musculus. As to the kind of experiment: Antiobesity activity in lean normal BALB/c mouse assessed as change in average daily food intake at 0.5 mmol/kg/day administered through diet for 7 days relative to time-matched control. It counts as functional.
In data set [7] the test system is Mus musculus. As to the kind of experiment: Antiobesity activity in ob/ob mouse model assessed as change in average daily food intake at 0.26 mmol/kg/day administered through diet for 28 days relative to time-matched control. In kind it is functional.
Data set [8] deals with Mus musculus. Description: Antiobesity activity in high fat diet-induced obese BALB/c mouse model assessed as change in average daily food intake at 0.38 mmol/kg/day administered through diet for 28 days relative to time-matched control. It counts as functional.
The test system of data set [9] is Mus musculus. Description: Antiobesity activity in lean normal BALB/c mouse assessed as change in average daily weight at 0.5 mmol/kg/day administered through diet for 7 days relative to time-matched control. In kind it is functional.
For data set [10], the system named is Mus musculus. As to the kind of experiment: Antiobesity activity in ob/ob mouse model assessed as change in average daily weight at 0.26 mmol/kg/day administered through diet for 28 days relative to time-matched control. In kind it is functional.
Data set [11] has as its system Mus musculus. As to the kind of experiment: Antiobesity activity in high fat diet-induced obese BALB/c mouse model assessed as change in average daily food intake at 0.45 mmol/kg/day administered through diet for 28 days relative to time-matched control. It counts as functional.
Data set [12] relates to Mus musculus. As to the kind of experiment: Hypoglycemic activity in lean normal BALB/c mouse assessed as blood glucose level at 0.62 mmol/kg/day administered through diet for 7 days relative to time-matched control. It counts as functional.
Data set [13] has as its system Mus musculus. As to the kind of experiment: Antiobesity activity in ob/ob mouse model assessed as change in average daily food intake at 0.27 mmol/kg/day administered through diet for 28 days relative to time-matched control. In kind it is functional.
The subject of data set [14] is Mus musculus. As to the kind of experiment: Hypoglycemic activity in ob/ob mouse model assessed as blood glucose level at 0.27 mmol/kg/day administered through diet for 28 days relative to time-matched control. It counts as functional.
Data set [15] relates to Mus musculus. As to the kind of experiment: Antiobesity activity in ob/ob mouse model assessed as change in average daily weight at 0.27 mmol/kg/day administered through diet for 28 days relative to time-matched control. It counts as functional.
For data set [16], the system named is Mus musculus. Description: Antiobesity activity in lean normal BALB/c mouse assessed as change in average daily food intake at 0.62 mmol/kg/day administered through diet for 7 days relative to time-matched control. In kind it is functional.
Data set [17] deals with Mus musculus. As to the kind of experiment: Antiobesity activity in high fat diet-induced obese BALB/c mouse model assessed as change in average daily body weight at 0.45 mmol/kg/day administered through diet for 28 days relative to time-matched control. In kind it is functional.
The test system of data set [18] is Mus musculus. Description: Hypoglycemic activity in high fat diet-induced obese BALB/c mouse model assessed as blood glucose level at 0.45 mmol/kg/day administered through diet for 28 days relative to time-matched control. In kind it is functional.
Data set [19] has as its system Mus musculus. As to the kind of experiment: Antiobesity activity in lean normal BALB/c mouse assessed as change in average daily weight at 0.62 mmol/kg/day administered through diet for 7 days relative to time-matched control. In kind it is functional.
Data set [20] has as its system Mus musculus. As to the kind of experiment: Antiobesity activity in lean normal BALB/c mouse assessed as change in average daily weight at 0.40 mmol/kg/day administered through diet for 7 days relative to time-matched control. It counts as functional.
The subject of data set [21] is Mus musculus. As to the kind of experiment: Antiobesity activity in lean normal BALB/c mouse assessed as change in average daily food intake at 0.40 mmol/kg/day administered through diet for 7 days relative to time-matched control. It counts as functional.
Data set [22] deals with Mus musculus. Description: Hypoglycemic activity in lean normal BALB/c mouse assessed as blood glucose level at 0.40 mmol/kg/day administered through diet for 7 days relative to time-matched control. It counts as functional.
Data set [23] deals with Mus musculus. Description: Hypoglycemic activity in ob/ob mouse model assessed as blood glucose level at 0.24 mmol/kg/day administered through diet for 28 days relative to time-matched control. In kind it is functional.
For data set [24], the system named is Mus musculus. As to the kind of experiment: Hypoglycemic activity in high fat diet-induced obese BALB/c mouse model assessed as blood glucose level at 0.42 mmol/kg/day administered through diet for 28 days relative to time-matched control. In kind it is functional.
For data set [25], the system named is Mus musculus. As to the kind of experiment: Antiobesity activity in high fat diet-induced obese BALB/c mouse model assessed as change in average daily food intake at 0.42 mmol/kg/day administered through diet for 28 days relative to time-matched control. It counts as functional.
Data set [26] deals with Mus musculus. As to the kind of experiment: Antiobesity activity in lean normal BALB/c mouse assessed as change in average daily food intake at 0.59 mmol/kg/day administered through diet for 7 days relative to time-matched control. It counts as functional.
Data set [27] has as its system Mus musculus. As to the kind of experiment: Antiobesity activity in high fat diet-induced obese BALB/c mouse model assessed as change in average daily body weight at 0.42 mmol/kg/day administered through diet for 28 days relative to time-matched control. In kind it is functional.
The subject of data set [28] is Mus musculus. Description: Hypoglycemic activity in lean normal BALB/c mouse assessed as blood glucose level at 0.59 mmol/kg/day administered through diet for 7 days relative to time-matched control. In kind it is functional.
Data set [29] relates to Mus musculus. As to the kind of experiment: Antiobesity activity in lean normal BALB/c mouse assessed as change in average daily weight at 0.59 mmol/kg/day administered through diet for 7 days relative to time-matched control. In kind it is functional.
For data set [30], the system named is Mus musculus. As to the kind of experiment: Antiobesity activity in ob/ob mouse model assessed as change in average daily food intake at 0.24 mmol/kg/day administered through diet for 28 days relative to time-matched control. In kind it is functional.
Data set [31] deals with Mus musculus. Description: Antiobesity activity in ob/ob mouse model assessed as change in average daily weight at 0.24 mmol/kg/day administered through diet for 28 days relative to time-matched control. It counts as functional.
The test system of data set [32] is Mus musculus. As to the kind of experiment: Antiobesity activity in high fat diet-induced obese BALB/c mouse model assessed as change in average daily body weight at 0.43 mmol/kg/day administered through diet for 28 days relative to time-matched control. In kind it is functional.
Data set [33] concerns Mus musculus. As to the kind of experiment: Hypoglycemic activity in lean normal BALB/c mouse assessed as blood glucose level at 0.54 mmol/kg/day administered through diet for 7 days relative to time-matched control. In kind it is functional.
Data set [34] deals with Mus musculus. Description: Antiobesity activity in lean normal BALB/c mouse assessed as change in average daily weight at 0.54 mmol/kg/day administered through diet for 7 days relative to time-matched control. In kind it is functional.
The subject of data set [35] is Mus musculus. As to the kind of experiment: Antiobesity activity in high fat diet-induced obese BALB/c mouse model assessed as change in average daily food intake at 0.43 mmol/kg/day administered through diet for 28 days relative to time-matched control. In kind it is functional.
Data set [36] relates to Mus musculus. As to the kind of experiment: Hypoglycemic activity in high fat diet-induced obese BALB/c mouse model assessed as blood glucose level at 0.43 mmol/kg/day administered through diet for 28 days relative to time-matched control. It counts as functional.
The nature of data set [37]: Metabolic stability in ob/ob mouse liver microsomes assessed as oxidative hydroxylation at 50 uM after 45 mins by HPLC-MS analysis. It counts as ADME, Microsome. To be noted: 0.75 h.
In data set [38] the test system is Mus musculus. As to the kind of experiment: Antiobesity activity in lean normal BALB/c mouse assessed as change in average daily food intake at 0.54 mmol/kg/day administered through diet for 7 days relative to time-matched control. It counts as functional.
The test system of data set [39] is Mus musculus. As to the kind of experiment: Antiobesity activity in lean normal BALB/c mouse assessed as change in average daily weight at 0.72 mmol/kg/day administered through diet for 7 days relative to time-matched control. In kind it is functional.
Data set [40] deals with Mus musculus. As to the kind of experiment: Hypoglycemic activity in lean normal BALB/c mouse assessed as blood glucose level at 0.72 mmol/kg/day administered through diet for 7 days relative to time-matched control. In kind it is functional.
Data set [41] concerns Mus musculus. As to the kind of experiment: Antiobesity activity in lean normal BALB/c mouse assessed as change in average daily food intake at 0.72 mmol/kg/day administered through diet for 7 days relative to time-matched control. In kind it is functional.
The subject of data set [42] is Mus musculus. As to the kind of experiment: Antiobesity activity in lean normal BALB/c mouse assessed as change in average daily weight at 0.52 mmol/kg/day administered through diet for 7 days relative to time-matched control. In kind it is functional.
The test system of data set [43] is Mus musculus. Description: Hypoglycemic activity in lean normal BALB/c mouse assessed as blood glucose level at 0.52 mmol/kg/day administered through diet for 7 days relative to time-matched control. It counts as functional.
The test system of data set [44] is Mus musculus. Description: Antiobesity activity in lean normal BALB/c mouse assessed as change in average daily food intake at 0.52 mmol/kg/day administered through diet for 7 days relative to time-matched control. In kind it is functional.

Structures are written as SMILES.

Consider `CC(C)=CCN=C(N)N` [GALEGINE], for which the Activity in data set [1] is 77%; in [2], “Non-toxic”; in [3], -9%; in [4], 91%; in data set [5], 53%; in [6], -36.3%. Besides, the Activity in data set [7] is given as -29.2%; in data set [8], -23.6%; in data set [9] it was -16.6%; in [10], -7.3%.

As for `N=C(N)NCc1ccc(F)cc1`, the Activity entry in data set [2] is recorded as “Non-toxic”; in data set [11], -9.8%; in [12], 56%; in data set [13] it was -26.8%; in [14], 102%; in data set [15] it was -8.7%. For the same compound, the Activity in [16] was -27.8%; in data set [17], -7.8%; in [18], 93%; in data set [19], -14.7%.

Take `N=C(N)NCc1ccc(Cl)c(Cl)c1`: the Activity entry is listed as “Non-toxic” in [2], -9.9% in data set [20], -38.3% in [21] and 67% in [22].

For `N=C(N)NCc1ccc(Cl)cc1`, the Activity in data set [23] is 71%; in data set [2], “Non-toxic”; in [24], 94%; in [25], -15.6%; in [26], -34.7%; in data set [27], -7.3%. Moreover, the Activity in data set [28] is recorded as 59%; in data set [29] it was -19.7%; in data set [30], -38.5%; in data set [31], -11%.

With `N=C(N)NCc1ccccc1`, the Activity result in [2] is “Non-toxic”; in data set [32] it was -10.6%; in data set [33], 60%; in data set [4], 82%; in [34], -10.4%; in data set [7], -29.3%. Moreover, the Activity was -14.9% in data set [35]; 90% in data set [36]; “Stable” in [37]; -6.8% in [10]; -28.1% in data set [38].

Consider `N=C(N)NCc1cccs1`, for which the Activity result is “Non-toxic” in data set [2]; -2.3% in [39]; 88% in data set [40]; 5.6% in data set [41]; “Stable” in data set [37].

Turning to `N=C(N)NCc1ccc(Br)cc1`, the Activity entry was “Non-toxic” in data set [2], -23.3% in data set [42], 51% in data set [43] and -36.7% in data set [44].

Source of the values: ChEMBL document CHEMBL1136921, “Benzylguanidines and other galegine analogues inducing weight loss in mice” (J Med Chem, 2009).
